Measured values: patent US11471467B2, “Ruthenium complexes for treating cancer which comprises cancer stem cells” (UNIVERSIDADE DE SANTIAGO DE COMPOSTELA, priority 2016, dated 2022)

Legend:
[1] = system: Panc185 and PancA6L cells; test: qRT-PCR gene expression in adherent PDAC cultures; assay type: cell-based; conditions: 100 μM, 24 hours
Experimental: FIG. 19. […] The RNA of Panc185 and PancA6L cells was extracted 24 hours after treatment with 100 μM of RuH2O. qRT-PCR analysis of Oct3/4, Sox2, and PGC1alpha was performed in cDNA generated from treated samples. […] Panc185 cells are also interchangeably referred to herein as 185 and 185 scd and Pacn6AL cells are also interchangeably referred to herein as A6L.
Furthermore, a reduction in PGC1alpha expression, a known c-MYC target, and a reduction in pluripotency-associated genes Oct3/4 and Sox2 were observed after treatment with 100 μM of RuH2O for 24 hours (FIG. 19).

[2] = system: Panc185 and PancA6L cells; test: Annexin V / DAPI staining of PDAC cells; assay type: cell-based
Experimental: FIG. 21. Cytotoxic effects of RuH2O on PDAC sphere cultures. Light micrographs and annexin-V staining of Panc185 and PancA6L cells after 72 hours of treatment with 100 μM of RuH2O.
FIG. 24. Induction of apoptosis in PDAC cells. Annexin-V staining of PDAC cells treated for 48 hours with 100 or 250 μM of RuH2O.
The effect of 100 μM of RuH2O on cultures rich in CSC was confirmed at the microscopic level and by measuring annexin V staining. […] Cell viability determined by the percentage of DAPI negative cells dropped by 50%.
To rule out the possibility that the effects mentioned above arise as a result of unspecific cytotoxic effects, adherent cultures (low in CSC) were treated for 48 hours with a single dose of RuH2O (100 or 250 μM) and their subsequent clonogenicity, self-renewal, and tumorigenicity was checked. […] The treated and untreated cells were then trypsinized and the percentage of apoptotic cells was analyzed.

Panc185 cells = test: Tumorigenicity of pretreated PDAC cells injected subcutaneously into NOD-SCID mice; assay type: in vivo
Experimental: FIG. 22. Effects of RuH2O on PDAC sphere formation. (A) Work sequence of the experiment for evaluating the effect of RuH2O in PDAC CSC (B) Light micrographs of spheres derived from Panc185 and PancA6L cells after 10 days of treatment with 250 μM of RuH2O FIG. 23. Effects of RuH2O on PDAC tumorigenicity in vivo. Panc185 cells were pretreated with RuH2O before subcutaneous injection into NOD-SCID (non-obese diabetic, severe combined immunodeficiency) mice. Tumors were extracted 12 weeks after injection and analyzed. A) Photographs of the tumors extracted from NOD-SCID mice 12 weeks after being injected with 10^4 or 10^3 Panc185 cells and pretreated with control (CTL) or 250 μM of RuH2O. (B) Summary of the numbers of tumors detected per injection with 10^4 or 10^3 Panc185 cells and pretreated with control (CTL) or 250 μM of RuH2O. (C) Weights of the tumors extracted from NOD-SCID mice 12 weeks after being injected with 10^4 or 10^3 Panc185 cells and pretreated with control (CTL) or 250 μM of RuH2O.
FIG. 27. Tumorigenicity of PDAC cells after treatment with RuH2O. PDAC cells were treated with the indicated concentrations of RuH2O for 48 hours and then injected subcutaneously into NOD-SCID mice. Tumors were extracted 7 or 11 weeks after injection.
The spheres were then disassociated and equal numbers of control-treated cells and RuH2O-treated cells were injected subcutaneously into immunocompromised NOD-SCID mice to evaluate the tumorigenicity thereof. Twelve weeks after the injection, the tumors were extracted and weighed. […] While 4 out of 4 injections and 5 out of 6 injections with 10,000 and 1,000 control-treated cells, respectively, led to tumors, only 1 out of every 6 injections with 10,000 RuH2O-treated cells led to tumor. […] Furthermore, the only tumor that developed in the mouse injected with 10,000 RuH2O-treated cells weighed 53 times less than the tumors formed in control-treated mice (0.0058 g with respect to 0.3118 g).
The trypsinized cells were then: 1) placed in a plate at a low confluence to evaluate their clonogenicity (FIG. 25); 2) repeatedly cultured in ultra-low adherent plates in serum-free DMEM/F12 supplemented with B27 for intervals of 7 days to evaluate sphere formation capacity over multiple generations (FIG. 26); and 3) subcutaneously injected into NOD-SCID mice to check their tumorigenicity as described above (FIG. 27).
Finally, the tumorigenicity of sphere-rich CSCs was studied as described above.

[Ru(terpy) (bpy)H2O]^2+ [complex 2]
Oct3/4 expression [1]: reduction
PGC1alpha expression [1]: reduction
Sox2 expression [1]: reduction
percentage of apoptotic cells ([2]; adherent cultures, 100 or 250 μM, 48 hours): increase in the percentage of apoptotic cells was not observed
appearance of spheres, annexin V staining ([2]; spheres, 100 μM, 72 hours): visually smaller and apoptotic
drop of cell viability (percentage of DAPI negative cells) ([2]; spheres, 100 μM, 72 hours): 50%
tumor formation (Panc185 cells; 1,000 sphere-derived cells pretreated with 250 μM, NOD-SCID mice, 12 weeks): Tumors did not form
tumor weight, times less than control-treated (Panc185 cells; 10,000 pretreated cells, 12 weeks): 53 times
tumor weight (Panc185 cells; 10,000 pretreated cells, 12 weeks, the only tumor): 0.0058 g
tumorigenicity (Panc185 cells; adherent cultures treated 48 hours, injected subcutaneously into NOD-SCID mice, 7 or 11 weeks): prevents clonogenicity, self-regeneration, and tumorigenicity
